From ChEMBL document CHEMBL1201862, “PubChem BioAssay data set” (2004)
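A five-concentration, 48-hour dose response in 96-well plates underlies each endpoint, interpolated linearly between surrounding concentrations. Abbreviation: GI50, concentration required for 50% inhibition of growth.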 The source made the active and inactive calls. No stated cut-off is given here; in the data, active = GI50 up to about 1.1 µM and inactive = higher.

Key:
Experiment in all cases: growth of human tumour cells (NCI), 48 h
MDA-MB-435 = system: MDA-MB-435
UACC-62 = system: UACC-62
COLO 205 = system: COLO 205
A549 = system: A549
OVCAR-4 = system: OVCAR-4
M14 = system: M14
HL-60 = system: HL-60
ACHN = system: ACHN
TK-10 = system: TK-10
SNB-75 = system: SNB-75
PC-3 = system: PC-3
KM12 = system: KM12
HCT-116 = system: HCT-116
MOLT-4 = system: MOLT-4
UO-31 = system: UO-31
OVCAR-3 = system: OVCAR-3
SK-OV-3 = system: SK-OV-3
SF-295 = system: SF-295
MDA-N = system: MDA-N
U-251 = system: U-251
SN12C = system: SN12C
HCC 2998 = system: HCC 2998
RXF 393 = system: RXF 393
T47D = system: T47D
SW-620 = system: SW-620
SK-MEL-28 = system: SK-MEL-28
786-0 = system: 786-0
RPMI-8226 = system: RPMI-8226
NCI-H226 = system: NCI-H226
DU-145 = system: DU-145
NCI-H460 = system: NCI-H460
UACC-257 = system: UACC-257
MCF7 = system: MCF7
SK-MEL-2 = system: SK-MEL-2
CAKI-1 = system: CAKI-1
K562 = system: K562
A498 = system: A498
HOP-62 = system: HOP-62
SK-MEL-5 = system: SK-MEL-5
MDA-MB-231 = system: MDA-MB-231
SNB-19 = system: SNB-19

SMILES: COC(=O)C1=C2SCc3ccc(cc3)CSC3=C(C(=O)OC)SC(=C(S2)S1)S3
- GI50 (MDA-MB-435): 49.4 µM (inactive)
- GI50 (UACC-62): > 100 µM (inactive)
- GI50 (COLO 205): > 100 µM (inactive)
- GI50 (A549): > 100 µM (inactive)
- GI50 (OVCAR-4): 64.6 µM (inactive)
- GI50 (M14): > 100 µM (inactive)
- GI50 (HL-60): 0.253 µM (active)
- GI50 (ACHN): > 100 µM (inactive)
- GI50 (TK-10): > 100 µM (inactive)
- GI50 (SNB-75): > 100 µM (inactive)
- GI50 (PC-3): > 100 µM (inactive)
- GI50 (KM12): > 100 µM (inactive)
- GI50 (HCT-116): > 100 µM (inactive)
- GI50 (MOLT-4): > 100 µM (inactive)
- GI50 (UO-31): > 100 µM (inactive)
- GI50 (OVCAR-3): > 100 µM (inactive)
- GI50 (SK-OV-3): > 100 µM (inactive)
- GI50 (SF-295): 91.8 µM (inactive)
- GI50 (MDA-N): 74.6 µM (inactive)
- GI50 (U-251): > 100 µM (inactive)
- GI50 (SN12C): > 100 µM (inactive)
- GI50 (HCC 2998): > 100 µM (inactive)
- GI50 (RXF 393): 67.3 µM (inactive)
- GI50 (T47D): > 100 µM (inactive)
- GI50 (SW-620): > 100 µM (inactive)
- GI50 (SK-MEL-28): > 100 µM (inactive)
- GI50 (786-0): 96.6 µM (inactive)
- GI50 (RPMI-8226): 33 µM (inactive)
- GI50 (NCI-H226): > 100 µM (inactive)
- GI50 (DU-145): > 100 µM (inactive)
- GI50 (NCI-H460): > 100 µM (inactive)
- GI50 (UACC-257): > 100 µM (inactive)
- GI50 (MCF7): > 100 µM (inactive)
- GI50 (SK-MEL-2): > 100 µM (inactive)
- GI50 (CAKI-1): > 100 µM (inactive)
- GI50 (K562): 43.6 µM (inactive)
- GI50 (A498): > 100 µM (inactive)
- GI50 (HOP-62): > 100 µM (inactive)
- GI50 (SK-MEL-5): > 100 µM (inactive)
- GI50 (MDA-MB-231): > 100 µM (inactive)
- GI50 (SNB-19): > 100 µM (inactive)
